In patent US20090005435A1, “Novel Compounds, Pharmaceutical Compositions Containing Same, and Methods of Use for Same” (priority 2004, published 2009):
In brackets after ≈: the same amount, converted by molar mass.

What was measured:
Assay type in all cases: cell-based
[1] = tested on: Enterococcus faecalis (ATCC #29212); assay: Broth microdilution MIC, E. faecalis
Protocol: (§1) A broth microdilution assay is used to assess the antimicrobial activity of the compounds. Compounds are tested at twofold serial dilutions, and the concentration that inhibits visible growth (OD600 at 10% of control) is defined as the MIC. Microorganisms tested include Staphylococcus aureus (ATCC #29213), Enterococcus faecalis (ATCC #29212), Pseudomonas aeruginosa (ATCC #27853), and Escherichia coli (ATCC #25922). The assay is performed in two growth media, Mueller Hinton Broth and Trypticase Soy Broth.
(§2) A blood (Tsoy/5% sheep blood) agar plate is inoculated from frozen stocks maintained in T soy broth containing 10% glycerol and incubated overnight at 37° C. Colonies are suspended in sterile broth so that the turbidity matches the turbidity of a 0.5 McFarland standard. The inoculum is diluted 1:10 in sterile broth (Mueller Hinton or Trypticase soy) and 195 ul is dispensed per well of a 96-well plate. […]
(§3) After 24 hours of incubation at 37° C., plates are read at OD600 on a Molecular Devices SpectraMax Plus Spectrophotometer. Average OD600 values are computed using SOFTmax Pro Software (Molecular Devices) and MIC values are determined by linear regression analysis using Prism version 3.02 (Graph Pad Software, San Diego). […]

[2] = biological target: T1, CPT-1 (Homo sapiens, UniProt P50416); assay: Carnitine palmitoyltransferase-1 (CPT-1) assay in permeabilized MCF-7 cells; conditions: at 20 ug/ml
T1 construct: This assay uses permeabilized cells to measure the transfer of [methyl-^14C]L-carnitine; endogenous in cells; host or cells: MCF-7 cells, digitonin-permeabilized
T1 sequence (P50416 1-773): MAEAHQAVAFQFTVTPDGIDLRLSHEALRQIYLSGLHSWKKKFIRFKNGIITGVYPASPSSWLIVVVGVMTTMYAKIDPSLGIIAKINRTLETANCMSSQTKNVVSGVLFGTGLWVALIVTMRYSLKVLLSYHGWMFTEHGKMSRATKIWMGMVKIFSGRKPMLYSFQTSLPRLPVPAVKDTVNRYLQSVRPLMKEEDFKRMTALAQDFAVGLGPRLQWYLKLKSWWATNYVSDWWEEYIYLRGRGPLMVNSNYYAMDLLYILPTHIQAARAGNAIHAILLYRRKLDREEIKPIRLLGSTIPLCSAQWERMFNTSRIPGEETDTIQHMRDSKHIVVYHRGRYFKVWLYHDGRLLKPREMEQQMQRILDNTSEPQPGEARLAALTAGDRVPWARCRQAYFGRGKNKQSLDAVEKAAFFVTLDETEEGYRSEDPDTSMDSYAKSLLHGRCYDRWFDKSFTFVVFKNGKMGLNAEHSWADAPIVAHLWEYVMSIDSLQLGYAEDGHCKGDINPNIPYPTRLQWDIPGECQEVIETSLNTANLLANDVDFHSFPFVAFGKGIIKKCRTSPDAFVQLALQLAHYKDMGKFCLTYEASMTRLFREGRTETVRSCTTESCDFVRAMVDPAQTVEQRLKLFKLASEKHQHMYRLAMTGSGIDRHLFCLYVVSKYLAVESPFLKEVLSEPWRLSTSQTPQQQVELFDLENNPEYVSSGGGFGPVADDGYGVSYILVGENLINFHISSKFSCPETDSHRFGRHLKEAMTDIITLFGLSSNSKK
Protocol: Carnitine Palmitoyltransferase-1 (CPT-1) Assay
CPT-1 catalyzes the ATP dependent transfer of long-chain fatty acids from acyl-CoA to acyl-carnitine that is inhibited by malonyl-CoA. As CPT-1 requires the mitochondrial membrane for activity, enzyme activity is measured in permeabilized cells or mitochondria. This assay uses permeabilized cells to measure the transfer of [methyl-^14C]L-carnitine to the organically soluble acyl-carnitine deriviative.
MCF-7 cells are plated in DMEM with 10% fetal bovine serum at 10^6 cells in 24-well plates in triplicate for controls, drugs, and malonyl-CoA. Two hours before commencing the assay, drugs are added at the indicated concentrations made from stock solutions at 10 mg/ml in DMSO, vehicle controls consist of DMSO without drug. Since malonyl-CoA cannot enter intact cells, it is only added in the assay buffer to cells that have not been preincubated with drugs. Following overnight incubation at 37° C., the medium is removed and replaced with 700 μl of assay buffer consisting of: 50 mM imidazole, 70 mM KCl, 80 mM sucrose, 1 mM EGTA, 2 mM MgCl2, 1 mM DTT, 1 mM KCN, 1 mM ATP, 0.1% fatty acid free bovine serum albumin, 70 μM palmitoyl-CoA, 0.25 μCi [methyl-^14C]L-carnitine, 40 μg digitonin with drug, DMSO vehicle control, or 20 μM malonyl-CoA. […] The butanol phase is counted by liquid scintillation and represents the acylcarnitine derivative.

[3] = tested on: Staphylococcus aureus (ATCC #29213); assay: Broth microdilution MIC, S. aureus
Protocol: as §1, §2, §3

`C=CCC1(CC=C)C(=O)SC(C)(CCCCCCCC)C1=O` (racemic) [Compound 4, 3,3-Diallyl-5-methyl-5-octyl-thiophene-2,4-dione] was tested, and the MIC ([1]; Enterococcus faecalis, ATCC29212, Trypticase Soy Broth, read-out: EF/Tsoy (MIC)) was 169 µg/mL (≈ 524 µM), the “EF/MH (MIC)” value ([1]; Mueller Hinton Broth) was “Neg” and the “CPT I Stim” value [2] was 125% of control. For the same molecule, the “SA/MH (MIC)” value ([3]; Mueller Hinton Broth) was “Neg” and the MIC ([3]; Staphylococcus aureus, ATCC29213, Trypticase Soy Broth, read-out: SA/Tsoy (MIC)) was 98 µg/mL (≈ 304 µM).
